# Results as given in ChEMBL document CHEMBL1201862, “PubChem BioAssay data set” (2004).
#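 96-well plates; 48 h exposure; 5 concentrations. Endpoints by linear interpolation between flanking doses. Not reached: highest tested concentration assigned. The concentration for 50% growth inhibition is given as GI50.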 The source made the active and inactive calls. Rule as the data show it: active = GI50 up to about 1.1 µM and inactive = higher.
# How the values were obtained:
# Experiment in all cases: DTP human tumour cell line panel, 48 h
# EKVX = test system: EKVX
# HCC 2998 = test system: HCC 2998
# HCT-116 = test system: HCT-116
# HCT-15 = test system: HCT-15
# HL-60 = test system: HL-60
# MOLT-4 = test system: MOLT-4
# Malme-3M = test system: Malme-3M
# NCI-H226 = test system: NCI-H226
# NCI-H23 = test system: NCI-H23
# NCI-H522 = test system: NCI-H522
# OVCAR-8 = test system: OVCAR-8
# SF-295 = test system: SF-295
# SF-539 = test system: SF-539
# SN12C = test system: SN12C
# UACC-257 = test system: UACC-257
# NCI-H460 = test system: NCI-H460
# OVCAR-3 = test system: OVCAR-3
SMILES,GI50 (EKVX),GI50 (HCC 2998),GI50 (HCT-116),GI50 (HCT-15) [µM],GI50 (HL-60),GI50 (MOLT-4),GI50 (Malme-3M),GI50 (NCI-H226),GI50 (NCI-H23),GI50 (NCI-H522),GI50 (OVCAR-8),GI50 (SF-295),GI50 (SF-539),GI50 (SN12C),GI50 (UACC-257),GI50 (NCI-H460),GI50 (OVCAR-3)
O=C1C2ON3c4ccccc4C(=O)C3(c3ccccc3)C2C(=O)N1c1ccccc1 (configuration not stated),> 100 µM (inactive),> 100 µM (inactive),> 100 µM (inactive),> 100,> 100 µM (inactive),> 100 µM (inactive),> 100 µM (inactive),> 100 µM (inactive),> 100 µM (inactive),> 100 µM (inactive),> 100 µM (inactive),> 100 µM (inactive),> 100 µM (inactive),> 100 µM (inactive),> 100 µM (inactive),,
CCOC(=O)C(=O)Nc1c(N(CC)CC)n2ccccc2nc1=O,> 100 µM (inactive),,> 100 µM (inactive),> 100,,> 100 µM (inactive),> 100 µM (inactive),> 100 µM (inactive),> 100 µM (inactive),> 100 µM (inactive),> 100 µM (inactive),,> 100 µM (inactive),> 100 µM (inactive),,> 100 µM (inactive),> 100 µM (inactive)
O=c1ccn([C@H]2CSC[C@@H](CO)C2)c(=O)[nH]1,> 100 µM (inactive),> 100 µM (inactive),> 100 µM (inactive),> 100,> 100 µM (inactive),> 100 µM (inactive),> 100 µM (inactive),> 100 µM (inactive),> 100 µM (inactive),> 100 µM (inactive),> 100 µM (inactive),> 10 µM (inactive),> 100 µM (inactive),> 100 µM (inactive),> 100 µM (inactive),> 100 µM (inactive),> 100 µM (inactive)
CN1C(c2ccccc2)CC(O)CC1c1ccccc1 (configuration not stated),> 100 µM (inactive),,> 100 µM (inactive),> 100,> 100 µM (inactive),> 100 µM (inactive),> 100 µM (inactive),> 100 µM (inactive),> 100 µM (inactive),> 100 µM (inactive),> 100 µM (inactive),> 100 µM (inactive),> 100 µM (inactive),> 100 µM (inactive),> 100 µM (inactive),> 100 µM (inactive),> 100 µM (inactive)
O=C(Nc1ccc(Cl)cc1)/C(Cc1cccc[n+]1[O-])=N\Nc1ccc([N+](=O)[O-])cc1[N+](=O)[O-],> 100 µM (inactive),> 100 µM (inactive),> 100 µM (inactive),> 100,> 100 µM (inactive),> 100 µM (inactive),> 100 µM (inactive),,> 100 µM (inactive),> 100 µM (inactive),> 100 µM (inactive),> 100 µM (inactive),> 100 µM (inactive),> 100 µM (inactive),> 100 µM (inactive),> 100 µM (inactive),> 100 µM (inactive)
